Values after ≈ are worked out from the molar mass of the structure shown.

Results on 1 compound are retold here after ChEMBL document CHEMBL5506059, “Cyanomethylquinolones as a New Class of Potential Multitargeting Broad-Spectrum Antibacterial Agents” (J Med Chem, 2024).

Common to all, as to type: functional
The subject of test [1] is Staphylococcus aureus. The test can be described thus: Antibacterial activity against methicillin resistant Staphylococcus aureus clinical isolate assessed as inhibition of bacterial growth incubated for 24 hrs.
The test system of test [2] is Staphylococcus aureus. As to the kind of experiment: Antibacterial activity against Staphylococcus aureus clinical isolate assessed as inhibition of bacterial growth incubated for 24 hrs.
Test [3] concerns Staphylococcus aureus. As to the kind of experiment: Antibacterial activity against Staphylococcus aureus ATCC 25923 assessed as inhibition of bacterial growth incubated for 24 hrs.
Test [4] relates to Staphylococcus aureus. As to the kind of experiment: Antibacterial activity against Staphylococcus aureus ATCC 29213 assessed as inhibition of bacterial growth incubated for 24 hrs.
The subject of the next test is Enterococcus faecalis. As to the kind of experiment: Antibacterial activity against Enterococcus faecalis clinical isolate assessed as inhibition of bacterial growth incubated for 24 hrs.
For a further test, the system named is Klebsiella pneumoniae. The test can be described thus: Antibacterial activity against Klebsiella pneumoniae clinical isolate assessed as inhibition of bacterial growth incubated for 24 hrs.
Test [5] deals with Escherichia coli. As to the kind of experiment: Antibacterial activity against Escherichia coli clinical isolate assessed as inhibition of bacterial growth incubated for 24 hrs.
Test [6] relates to Escherichia coli. As to the kind of experiment: Antibacterial activity against Escherichia coli ATCC 25922 assessed as inhibition of bacterial growth incubated for 24 hrs.
Test [7] deals with Pseudomonas aeruginosa. As to the kind of experiment: Antibacterial activity against Pseudomonas aeruginosa clinical isolate assessed as inhibition of bacterial growth incubated for 24 hrs.
Test [8] has as its system Pseudomonas aeruginosa. As to the kind of experiment: Antibacterial activity against Pseudomonas aeruginosa ATCC 27853 assessed as inhibition of bacterial growth incubated for 24 hrs.
In the next test the test system is Acinetobacter baumannii. The test can be described thus: Antibacterial activity against Acinetobacter baumannii clinical isolate assessed as inhibition of bacterial growth incubated for 24 hrs.
The test system of test [9] is Staphylococcus aureus. As to the kind of experiment: Resistance development in methicillin resistant Staphylococcus aureus assessed as fold increase in MIC measured after 20 days relative to control. Particulars: time 20 day.
Test [10] deals with Pseudomonas aeruginosa. The test can be described thus: Resistance development in Pseudomonas aeruginosa assessed as fold increase in MIC measured after 20 days relative to control. Particulars: time 20 day.

For `NC1CCN(c2c(F)cc3c(=O)c(C(=O)O)cn(C4CC4)c3c2Cl)C1` (stereo not drawn) [CLINAFLOXACIN], the MIC (as a rule, the smallest concentration in the dilution series that meets the test's criterion for growth inhibition) with Staphylococcus aureus [1] was 1 µg/mL (≈ 2.73 µM); in the test on Staphylococcus aureus [2], 0.5 µg/mL (≈ 1.37 µM); in the test on Staphylococcus aureus [3], 0.5 µg/mL (≈ 1.37 µM); with Staphylococcus aureus [4], 0.5 µg/mL (≈ 1.37 µM); with Enterococcus faecalis it was 4 µg/mL (≈ 10.9 µM); in the test on Klebsiella pneumoniae, 0.5 µg/mL (≈ 1.37 µM). Further, the MIC in the test on Escherichia coli [5] turned out to be 0.25 µg/mL (≈ 0.683 µM); in the test with Escherichia coli [6] it was 0.25 µg/mL (≈ 0.683 µM); with Pseudomonas aeruginosa [7], 0.5 µg/mL (≈ 1.37 µM); with Pseudomonas aeruginosa [8] it was 0.5 µg/mL (≈ 1.37 µM); with Acinetobacter baumannii, 0.5 µg/mL (≈ 1.37 µM). The “fold change (FC)” value with Staphylococcus aureus [9] is on record as 8; in the test with Pseudomonas aeruginosa [10], 16.
